Measured values as given in ChEMBL document CHEMBL3991947, “D-serine transporter inhibitors as pharmaceutical compositions for the treatment of central nervous system disorders” (2014).
Activity calls are given as the source filed them.

Legend:
[1] = species: Rattus norvegicus; test: Inhibition of D-serine transporter in Sprague-Dawley rat visual cortex assessed as LTP threshold after 15 mins
[2] = molecular target: T1, Glutamate NMDA receptor (Rattus norvegicus) (UniProt P35439+Q00959+Q00960+Q00961+Q62645+Q8VHN2+Q9R1M7); test: Potentiation of NMDA receptor mediated excitatory post-synaptic currents in the CA1 region of rat hippocampal slices upto 1 hr by whole-cell patch-clamp assay
[3] = molecular target: T2, Amino acid transporter (Rattus norvegicus) (UniProt Q9Z1J7); test: Inhibition of ASCT2 mediated [3H]-D-serine uptake in rat hippocampal astrocytes at 1 mM after 5 mins by beta counting analysis; type: cell-based
T2 sequence (whole entry): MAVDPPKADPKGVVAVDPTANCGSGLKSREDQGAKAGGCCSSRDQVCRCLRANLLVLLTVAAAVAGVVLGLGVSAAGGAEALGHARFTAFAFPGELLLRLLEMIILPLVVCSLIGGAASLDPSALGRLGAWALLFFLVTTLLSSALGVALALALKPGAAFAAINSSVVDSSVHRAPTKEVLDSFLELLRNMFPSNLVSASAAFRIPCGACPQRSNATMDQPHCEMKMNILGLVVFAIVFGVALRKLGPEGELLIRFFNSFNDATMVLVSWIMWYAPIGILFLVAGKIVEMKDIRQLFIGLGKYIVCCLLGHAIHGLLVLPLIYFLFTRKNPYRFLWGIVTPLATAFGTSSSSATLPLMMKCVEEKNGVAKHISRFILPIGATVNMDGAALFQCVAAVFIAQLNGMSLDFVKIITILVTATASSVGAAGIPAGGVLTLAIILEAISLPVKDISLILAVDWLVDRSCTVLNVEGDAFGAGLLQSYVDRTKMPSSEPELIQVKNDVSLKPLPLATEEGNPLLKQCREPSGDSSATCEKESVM

[4] = molecular target: T2, Amino acid transporter (Rattus norvegicus); test: Inhibition of ASCT2 in rat hippocampal astrocytes assessed as reduction in [3H]-D-serine uptake in presence of L-t-40HPro after 5 mins by beta counting analysis; type: cell-based
[5] = molecular target: T2, Amino acid transporter (Rattus norvegicus); test: Inhibition of ASCT2 in rat hippocampal astrocytes assessed as reduction in [3H]-D-serine uptake in presence of L-glutamine after 5 mins by beta counting analysis; type: cell-based
[6] = molecular target: T1, Glutamate NMDA receptor (Rattus norvegicus); test: Activation of NMDA receptor in rat visual cortex assessed as increase in theta burst stimulation of LTP after 15 mins followed by LTP induction in presence of DAAO by electrophysiological assay
[7] = tested on: Rattus norvegicus; test: Effect on absolute startle response in rat model of schizophrenia at 15 mg/kg; type: ADME, organism-based; details: in vivo
[8] = tested on: Rattus norvegicus; test: Antipsychotic activity in rat model of schizophrenia assessed as […] in prepulse inhibition at 15 mg/kg; type: functional, organism-based
[9] = molecular target: T1, Glutamate NMDA receptor (Rattus norvegicus); test: Potentiation of NMDA receptor mediated excitatory post-synaptic currents in the CA1 region of rat hippocampal slices after 1 hr by electrophysiological assay
[10] = molecular target: T1, Glutamate NMDA receptor (Rattus norvegicus); test: Activation of NMDA receptor in rat visual cortex assessed as increase in theta burst stimulation of LTP after 15 mins followed by LTP induction by electrophysiological assay
[11] = tested on: Rattus norvegicus; test: Antipsychotic activity in rat model of schizophrenia assessed as […] in prepulse inhibition at 600 mg/kg; type: functional, organism-based
[12] = tested on: Rattus norvegicus; test: Effect on absolute startle response in rat model of schizophrenia at 600 mg/kg; type: ADME, organism-based; details: in vivo
[13] = species: Rattus norvegicus; test: Inhibition of D-serine transporter in rat hippocampal slices assessed as increase in LTP at 100 uM
[14] = tested on: Mus musculus; test: Reduction in amphetamine-induced hyperactivity in C57B/6 mouse model of schizophrenia at 0.3 mg/kg, ip administered at 30 mins after habituation in open field apparatus followed by amphetamine injection measured for 1 hr post dose; type: functional, organism-based
[15] = tested on: Mus musculus; test: Reduction in amphetamine-induced hyperactivity in systemically dosed C57B/6 mouse model of schizophrenia administered at 30 mins after habituation in open field apparatus followed by amphetamine injection measured for 1 hr post dose; type: functional, organism-based
[16] = tested on: Mus musculus; test: Reduction in amphetamine-induced hyperactivity in C57B/6 mouse model of schizophrenia at 1 mg/kg administered at 30 mins after habituation in open field apparatus followed by amphetamine injection measured for 1 hr post dose; type: functional, organism-based

Row | Compound | inhibition [3] [%] | other results
1 | NC(=O)CC[C@H](N)C(=O)O | > 25 | inhibition [4]: Active; Activity [2]: inactive
2 | N[C@@H](CCC(=O)OCc1ccccc1)C(=O)O | – | Activity [2]: inactive
3 | O=C(O)[C@@H]1C[C@@H](O)CN1 | > 25 | Activity [1]: 3 µM; inhibition [5]: Active; Activity [2]: inactive
4 | N[C@H](C(=O)O)C1CC1 | > 25 | Activity [1]: 1 µM
5 | O=C(O)[C@@H]1CCCN1 | > 25 | Activity [2]: inactive
6 | N[C@H](CO)C(=O)O [(D)-SERINE] | > 25 | Activity [11]: inactive; Activity [1]: 3 µM; Activity [2]: inactive; Activity [12]: Non-Toxic
7 | O=C(O)[C@@H]1NCC[C@H]1Cc1ccccc1 | > 25 | –
8 | O=C(O)[C@@H]1C[C@@H](Cc2ccc(Cl)cc2Cl)CN1 | – | Activity [16]: Active
9 | O=C(O)[C@@H]1CN1 | > 25 | –
10 | N[C@@H](CCS)C(=O)O | > 25 | –
11 | O=C(O)C1C[C@@H](Cc2ccccc2F)CN1 (single isomer, unassigned) | > 25 | –
12 | O=C(O)[C@@H]1C[C@H](Cc2ccccc2)CN1 | > 25 | –
13 | C[C@@H](O)[C@@H](N)C(=O)O (racemic) | > 25 | –
14 | O=C(O)C1C[C@@H](Cc2ccc(Cl)c(Cl)c2)CN1 (single isomer, unassigned) | > 25 | –
15 | N[C@@H](CS)C(=O)O | > 25 | –
16 | N[C@@H](CO)C(=O)O | > 25 | Activity [2]: inactive
17 | [N-]=[N+]=CC(=O)CC[C@H](N)C(=O)O | > 25 | –
18 | C[C@H](O)[C@@H](N)C(=O)O | > 25 | –
19 | O=C(O)C1C[C@@H](Cc2cccc(F)c2)CN1 (single isomer, unassigned) | > 25 | –
20 | NC(=O)C[C@@H](N)C(=O)O | > 25 | –

Row | Compound | inhibition [3] [%] | other results
21 | C=CCC(N)C(=O)O (centres undefined) | > 25 | –
22 | O=C(O)[C@H]1NCCC1c1ccccc1 (some centres undefined) | > 25 | –
23 | O=C(O)[C@H]1NCC[C@@H]1c1ccccc1 | > 25 | –
24 | O=C(O)[C@@H]1C[C@@H](Cc2ccc3ccccc3c2)CN1 | > 25 | –
25 | Cc1ccccc1C[C@H]1CNC(C(=O)O)C1 (single isomer, unassigned) | > 25 | –
26 | O=C(/C=C/c1c(C(=O)O)[nH]c2cc(Cl)cc(Cl)c12)Nc1ccccc1 | > 25 | –
27 | C=CC[C@H]1CNC(C(=O)O)C1 (single isomer, unassigned) | > 25 | –
28 | O=C(O)[C@@H]1C[C@@H](Cc2ccccn2)CN1 | > 25 | –
29 | N[C@H]1CCSC1=O | > 25 | –
30 | N[C@H](C(=O)O)C1CCCCC1 | > 25 | –
31 | CC(C)(C)c1ccc(C[C@H]2CNC(C(=O)O)C2)cc1 (single isomer, unassigned) | > 25 | –
32 | NC1(C(=O)O)CCCC1 | > 25 | –
33 | NC1(C(=O)O)CCC1 | > 25 | –
34 | COCC(N)C(=O)O (racemic) | > 25 | –
35 | NCC(=O)O | > 25 | –
36 | O=C(Nc1cccc2ccccc12)[C@@H]1C[C@@H](O)CN1 | > 25 | –
37 | O=C(O)[C@@H]1C[C@@H](F)CN1 | > 25 | –
38 | N[C@@H](CCO)C(=O)O | > 25 | –
39 | O=C(O)/C(=C/c1c(C(=O)O)[nH]c2cc(Cl)cc(Cl)c12)c1ccccc1 | > 25 | –
40 | O=C(O)C1C[C@@H](Cc2ccncc2)CN1 (single isomer, unassigned) | > 25 | –

The next lines start with results.

Row | inhibition [3] [%] | Compound | other results
41 | > 25 | N[C@H](C(=O)O)c1ccccc1 | Activity [1]: 10 µM; Activity [2]: inactive
42 | > 25 | N[C@@H](CSc1ccccc1)C(=O)O | Activity [2]: inactive
43 | > 25 | N[C@H](C(=O)O)c1ccc(O)cc1 [OXFENICINE] | Activity [6]: inactive; Activity [7]: Non-Toxic; Activity [8]: Active; Activity [9]: inactive; Activity [10]: Dose-dependent effect; Activity [1]: 10 µM; Activity [2]: Dose-dependent effect
44 | > 25 | N[C@@H](CSCc1ccccc1)C(=O)O | Activity [2]: inactive
45 | > 25 | NC(C(=O)O)c1ccccc1F (centres undefined) | Activity [1]: > 300 µM; Activity [2]: inactive
46 | > 25 | N[C@@H](CCC(=O)Nc1ccc([N+](=O)[O-])cc1)C(=O)O | inhibition [13]: Active; Activity [1]: 100 µM; Activity [2]: inactive
47 | > 25 | N[C@H](C(=O)O)c1ccc(F)cc1 | Activity [1]: 0.3 µM; Activity [2]: inactive; Activity [14]: Active; Activity [15]: Dose-dependent effect
48 | > 25 | NC(C(=O)O)c1ccccc1O (centres undefined) | –
49 | > 25 | NC(C(=O)O)c1cccc(Br)c1 (centres undefined) | –
50 | > 25 | NC(C(=O)O)c1ccc(CO)c(O)c1 (centres undefined) | –
51 | > 25 | O=C(O)c1cc2sccc2[nH]1 | –
52 | > 25 | NC(C(=O)O)c1ccc2c(c1)OCO2 (centres undefined) | –
53 | > 25 | Cc1ccccc1[C@H](N)C(=O)O | –
54 | > 25 | O=C(O)C1C[C@@H](Cc2cccc(Br)c2)CN1 (single isomer, unassigned) | –
55 | > 25 | NC(C(=O)O)c1ccc([N+](=O)[O-])cc1 (centres undefined) | –
56 | > 25 | O=C(O)[C@@H]1NCC[C@H]1Cc1ccc(F)cc1 | –
57 | > 25 | Cc1ccc(C(N)C(=O)O)cc1Cl (centres undefined) | –
58 | > 25 | NC(C(=O)O)c1ccc(C(=O)O)c(O)c1 (centres undefined) | –

Row | inhibition [3] [%] | Compound | other results
59 | > 25 | N[C@@H](Cc1cccs1)C(=O)O | –
60 | > 25 | N[C@@H](C(=O)O)C1=CCC=CC1 | –
61 | > 25 | N[C@@H](Cc1ccc2ccccc2c1)C(=O)O | –
62 | > 25 | N[C@H](C(=O)O)c1ccc(O)c(C(=O)O)c1 | –
63 | > 25 | COC(=O)[C@@H](N)c1ccccc1 | –
64 | > 25 | NC(C(=O)O)c1ccc(O)c(O)c1 (centres undefined) | –
65 | > 25 | O=C(O)[C@@H]1Cc2ccccc2CN1 | –
66 | > 25 | N[C@@H](CCCc1ccccc1)C(=O)O | –
67 | > 25 | O=C(O)[C@H](CO)NCc1ccccc1 | –
68 | > 25 | NC(C(=O)O)c1cccc(F)c1 (centres undefined) | –
69 | > 25 | NC(=O)C[C@H](N)C(=O)O | Activity [1]: 3 µM; Activity [2]: inactive
70 | > 25 | Nc1c(O)cccc1C(=O)CC(N)C(=O)O (centres undefined) | –
71 | > 25 | N#Cc1ccc(C[C@H]2CNC(C(=O)O)C2)cc1 (single isomer, unassigned) | –
72 | > 25 | NC(C(=O)O)c1ccc2c(c1)OCCO2 (centres undefined) | –
73 | > 25 | N#Cc1ccccc1C[C@H]1CNC(C(=O)O)C1 (single isomer, unassigned) | –
74 | > 25 | NC(CCC(=O)Nc1ccccc1)C(=O)O (centres undefined) | –
75 | > 25 | NC(C(=O)O)c1nnn[nH]1 (centres undefined) | –
